This note sets out measurements from US20260272797A1, “FRAGRANCE COMPOSITION” (GIVAUDAN SA, priority 2023, published 2026).

A short description of experiment [1]: Gas-phase evaluation of each fragrance ingredient alone against model scalp malodour, MiniVAS device, panel of 5 experts. The settings on record: for Scalp MOC of ingredient alone: expert description.
The nature of experiment [2]: Impact of fragrance ingredients on scalp malodour counteractancy of 80 fragrance compositions (Example 2 protocol, statistical presence). The settings on record: series of 80 fragrance compositions.
Where [3] appears, read: Table 3, air flow 50 ml/min, scale of 1-5 (1=barely noticeable, 5=very strong).
[4] abbreviates: Table 4, air flow 50 ml/min, scale of 1-5.

In experiment [1] (setting [3]), `CCCCCCC1CCC(=O)O1` (centres unmarked) [5-hexyloxolan-2-one] showed an MO intensity of 3. Also, in experiment [2] (Table 3), the “Impact on scalp MOC of fragrance composition” value (“Impact on scalp MOC” below) was “Positive”.

In turn, `CC1=CC(C)C(C=O)CC1` (centres unmarked) [2,4-dimethylcyclohex-3-ene-1-carbaldehyde] showed an MO intensity in experiment [1] (setting [4]) of 1. For the same compound, the “Impact on scalp MOC” value in experiment [2] (Table 4) was “Negative”.

In the case of `CCCCCC1(C)CCC(C)(C)C1=O` (centres unmarked) [2,2,5-trimethyl-5-pentylcyclopentanone], the MO intensity in experiment [1] (setting [3]) stood at 3.5. Moreover, the “Impact on scalp MOC” value in experiment [2] (Table 3) is on record as “Positive”.

In experiment [1] (setting [3]), `COc1ccc(CC(C)C=O)cc1` (centres unmarked) [3-(4-methoxyphenyl)-2-methylpropanal] yielded an MO intensity of 1. Also, the “Scalp MOC of ingredient alone” value in experiment [1] (Table 3, gas phase) was “No effect”. Also, in experiment [2] (Table 3), the “Impact on scalp MOC” value is listed as “Positive”.

Consider `CCCC1CCCC(=O)O1` (centres unmarked) [6-propyltetrahydro-2H-pyran-2-one], for which the MO intensity in experiment [1] (setting [4]) is listed as 3.8. Besides, the “Impact on scalp MOC” value in experiment [2] (Table 4) is listed as “Negative”.

As for `CC1C/C=C\CCCCCCCCCC(=O)C1` (centres unmarked) [(Z)-3-methylcyclopentadec-5-enone], the MO intensity in experiment [1] (setting [3]) worked out at 2.1. Also, in experiment [2] (Table 3), the “Impact on scalp MOC” value is given as “Positive”.

With `C/C=C/c1ccc(OC)c(OC)c1` [(E)-1,2-dimethoxy-4-(prop-1-en-1-yl)benzene], in experiment [1] (setting [4]), the MO intensity came out at 3.3. Further, the “Impact on scalp MOC” value in experiment [2] (Table 4) is listed as “Negative”.

For `Cc1occc(=O)c1O` [3-hydroxy-2-methyl-4H-pyran-4-one], the MO intensity in experiment [1] (setting [3]) worked out at 4. Besides, the “Impact on scalp MOC” value in experiment [2] (Table 3) is given as “Positive”.

`CCC(C)(CCCC(C)C=O)OC` (centres unmarked) [6-methoxy-2,6-dimethyloctanal]: the MO intensity in experiment [1] (setting [3]) amounted to 3. Further, the “Impact on scalp MOC” value in experiment [2] (Table 3) is “Positive”.

`CC(=O)OCCc1ccccc1` [2-phenylethyl acetate]: the MO intensity in experiment [1] (setting [4]) came to 1. Moreover, in experiment [2] (Table 4), the “Impact on scalp MOC” value is listed as “Negative”.

The compound `C/C=C/C(=O)C1=C(C)CCCC1(C)C` [(E)-1-(2,6,6-trimethyl-1-cyclohexenyl)but-2-en-1-one] yielded an MO intensity in experiment [1] (setting [3]) of 2.8. Moreover, in experiment [1] (Table 3, gas phase), the “Scalp MOC of ingredient alone” value is given as “Coverage”. Also, the “Impact on scalp MOC” value in experiment [2] (Table 3) was “Positive”.

Consider `O=Cc1ccc2c(c1)OCO2` [benzo[d][1,3]dioxole-5-carbaldehyde], for which the MO intensity in experiment [1] (setting [3]) was 3. Further, in experiment [2] (Table 3), the “Impact on scalp MOC” value was “Positive”.

In the case of `CC(=O)OCCC1=CCC2CC1C2(C)C` (centres unmarked) [2-(6,6-dimethylbicyclo[3.1.1]hept-2-en-2-yl)ethyl acetate], the MO intensity in experiment [1] (setting [3]) is on record as 2. Moreover, the “Impact on scalp MOC” value in experiment [2] (Table 3) is given as “Positive”.

The compound `CC(C=O)Cc1ccc(C(C)(C)C)cc1` (centres unmarked) [3-(4-(tert-butyl)phenyl)-2-methylpropanal] gave an MO intensity in experiment [1] (setting [3]) of 2.8. The “Impact on scalp MOC” value in experiment [2] (Table 3) is reported as “Positive”.

With `CC/C=C\CCOC(=O)c1ccccc1` [(Z)-hex-3-en-1-yl benzoate], the MO intensity in experiment [1] (setting [4]) came out at 2. The “Scalp MOC of ingredient alone” value in experiment [1] (Table 4, gas phase) was “Low coverage”. Also, the “Impact on scalp MOC” value in experiment [2] (Table 4) is listed as “Negative”.

For `c1ccc2[nH]ccc2c1` [1H-indole], the MO intensity in experiment [1] (setting [3]) is 4. For the same compound, the “Impact on scalp MOC” value in experiment [2] (Table 3) was “Positive”.

Regarding `CC1COCc2cc3c(cc21)C(C)(C)C(C)C3(C)C` (centres unmarked) [4,6,6,7,8,8-hexamethyl-1,3,4,6,7,8-hexahydrocyclopenta[g]isochromene], the MO intensity in experiment [1] (setting [3]) is reported as 3. Moreover, the “Impact on scalp MOC” value in experiment [2] (Table 3) was “Positive”.

In experiment [1] (setting [4]), `C=C(C)[C@@H]1CC=C(C)C(=O)C1` [(5R)-2-methyl-5-prop-1-en-2-ylcyclohex-2-en-1-one] showed an MO intensity of 0. Further, the “Scalp MOC of ingredient alone” value in experiment [1] (Table 4, gas phase) is listed as “Enhances MO”. Moreover, the “Impact on scalp MOC” value in experiment [2] (Table 4) is recorded as “Negative”.

`CC(=O)c1ccccc1` [1-phenylethanone] showed an MO intensity in experiment [1] (setting [3]) of 5. Besides, the “Impact on scalp MOC” value in experiment [2] (Table 3) is on record as “Positive”.

Consider `CCOc1cc(C)ccc1O` [2-ethoxy-4-methylphenol], for which the MO intensity in experiment [1] (setting [3]) came out at 2.8. The “Impact on scalp MOC” value in experiment [2] (Table 3) is “Positive”.
